Reference: ChEMBL document CHEMBL4043102, “Novel 4-acetamide-2-alkylthio-N-acetanilides resembling nimesulide: Synthesis, cell viability evaluation and in silico studies” (Bioorg Med Chem, 2017)
Active and inactive are the calls of the source. No cut-off for these calls is given here.

Experiments:
MCF7 [1] = assay: Antiproliferative activity against human MCF7 cells assessed as cell proliferation at 30 uM after 48 hrs by MTT assay relative to control; assay type: functional; details: MCF7, 48 h, read-out: Activity
LNCaP [2] = assay: Antiproliferative activity against human LNCAP cells assessed as cell proliferation at 1 mM after 48 hrs by MTT assay relative to control; details: read-out: Activity
[3] = Antiproliferative activity against NHDF assessed as cell proliferation at 1 mM after 48 hrs by MTT assay relative to control; details: human, NHDF cells
MCF7 [4] = assay: Antiproliferative activity against human MCF7 cells assessed as cell proliferation at 1 mM after 48 hrs by MTT assay relative to control; details: MCF7, 48 h, read-out: Activity
LNCaP [5] = assay: Antiproliferative activity against human LNCAP cells assessed as cell proliferation at 30 uM after 48 hrs by MTT assay relative to control; assay type: functional; details: read-out: Activity
[6] = Antiproliferative activity against NHDF assessed as cell proliferation at 30 uM after 48 hrs by MTT assay relative to control; assay type: cell-based; details: human, NHDF cells; read-out: Activity
MCF7 [7] = assay: Antiproliferative activity against human MCF7 cells after 48 hrs by MTT assay; assay type: functional, cell-based; details: MCF7, 48 h
MCF7 [8] = assay: Induction of apoptosis in human MCF7 cells assessed as reduction in viable cells at 30 uM after 24 hrs by propidium iodide staining-based microscopic analysis; assay type: functional, cell-based
LNCaP [9] = assay: Antiproliferative activity against human LNCAP cells after 48 hrs by MTT assay; assay type: functional, cell-based
MCF7 [10] = assay: Induction of apoptosis in human MCF7 cells assessed as reduction in viable cells at 30 uM after 24 hrs by propidium iodide staining based FACS analysis; assay type: functional, cell-based
MCF7 [11] = assay: Induction of morphological changes in human MCF7 cells assessed as cell rounding at 30 uM after 24 hrs by propidium iodide staining-based microscopic analysis; assay type: functional

CC(=O)N(Cc1ccccc1C)c1ccccc1SCc1ccccc1C
growth at 30 µM (MCF7 [1]): 13.7%

CCSc1ccccc1N(Cc1ccccc1C)C(C)=O
growth at 30 µM (MCF7 [1]): 77%

OO [HYDROGEN PEROXIDE]
growth at 1000 µM (LNCaP [2]): 2.15%
viability at 48 h, 1000 µM [3]: 15.5%
growth at 1000 µM (MCF7 [4]): 4.44%

CCCOc1ccccc1N(CC)C(C)=O
growth at 30 µM (MCF7 [1]): 92.5%

CCCCCCSc1cc([N+](=O)[O-])ccc1N(CCCCCC)C(C)=O
growth at 30 µM (MCF7 [1]): 65.9%
growth at 30 µM (LNCaP [5]): 92.3%
viability at 48 h, 30 µM [6]: 111%

CCCCCCN(C(C)=O)c1ccc(NC(C)=O)cc1SCc1ccc(C)cc1C
growth at 30 µM (MCF7 [1]): 11.1%
growth at 30 µM (LNCaP [5]): 88.5%
viability at 48 h, 30 µM [6]: 83%
IC50 (MCF7 [7]): 20.7 µM

CS(=O)(=O)Nc1ccc([N+](=O)[O-])cc1Oc1ccccc1 [NIMESULIDE]
growth at 30 µM (MCF7 [1]): 42.5%
growth at 30 µM (LNCaP [5]): 73.8%
viability at 48 h, 30 µM [6]: 89.3%
IC50 (MCF7 [7]): > 100 µM
Activity (MCF7 [8]): Active
IC50 (LNCaP [9]): 26.7 µM
Activity (MCF7 [10]): Active

CCN(C(C)=O)c1ccccc1SCc1ccccc1
growth at 30 µM (MCF7 [1]): 95.3%

CCSc1ccccc1N(CC)C(C)=O
growth at 30 µM (MCF7 [1]): 99.5%

CCN(C(C)=O)c1ccccc1OCc1ccccc1
growth at 30 µM (MCF7 [1]): 88.8%

CC(=O)Nc1ccc(N(Cc2ccc(C)cc2C)C(C)=O)c(SCc2ccc(C)cc2C)c1
growth at 30 µM (MCF7 [1]): 15.3%
growth at 30 µM (LNCaP [5]): 48%
viability at 48 h, 30 µM [6]: 89.9%
IC50 (MCF7 [7]): 7.33 µM

CC(=O)N(Cc1ccccc1)c1ccccc1SCc1ccccc1
growth at 30 µM (MCF7 [1]): 79.8%

CCSc1ccccc1N(Cc1ccccc1)C(C)=O
growth at 30 µM (MCF7 [1]): 89.4%

CCCCCCN(C(C)=O)c1ccccc1SCCC
growth at 30 µM (MCF7 [1]): 47.6%

CCOc1ccccc1N(Cc1ccccc1)C(C)=O
growth at 30 µM (MCF7 [1]): 87.6%

CC(=O)Nc1ccc(N(CC2CCCCC2)C(C)=O)c(SCc2ccc(C)cc2C)c1
growth at 30 µM (MCF7 [1]): 9.08%
growth at 30 µM (LNCaP [5]): 23%
viability at 48 h, 30 µM [6]: 79.7%
IC50 (MCF7 [7]): 20.8 µM
IC50 (LNCaP [9]): 9.71 µM

CCCN(C(C)=O)c1ccccc1SC
growth at 30 µM (MCF7 [1]): 95.3%

CCCCCCSc1cc(NC(C)=O)ccc1N(CCCCCC)C(C)=O
growth at 30 µM (MCF7 [1]): 36.6%
growth at 30 µM (LNCaP [5]): 73.9%
viability at 48 h, 30 µM [6]: 93.6%
IC50 (MCF7 [7]): 24.9 µM

CCCCCCSc1ccccc1N(CC)C(C)=O
growth at 30 µM (MCF7 [1]): 67.7%

CC(=O)Nc1ccc(N(CC2CCCCC2)C(C)=O)c(SCC2CCCCC2)c1
growth at 30 µM (MCF7 [1]): 7.52%
growth at 30 µM (LNCaP [5]): 29.7%
viability at 48 h, 30 µM [6]: 86.2%
IC50 (MCF7 [7]): 16.6 µM
IC50 (LNCaP [9]): 9.16 µM
Activity (MCF7 [11]): Active
Activity (MCF7 [10]): Active

CCCCCCOc1ccccc1N(CC)C(C)=O
growth at 30 µM (MCF7 [1]): 55.5%

CCCCCCSc1cc(NC(C)=O)ccc1N(CC1CCCCC1)C(C)=O
growth at 30 µM (MCF7 [1]): 24.2%
growth at 30 µM (LNCaP [5]): 49.8%
viability at 48 h, 30 µM [6]: 82.8%
IC50 (MCF7 [7]): 21 µM

CCCCCCN(C(C)=O)c1ccc(NC(C)=O)cc1SCC1CCCCC1
growth at 30 µM (MCF7 [1]): 35.9%
growth at 30 µM (LNCaP [5]): 117%
viability at 48 h, 30 µM [6]: 98.2%
IC50 (MCF7 [7]): 20.4 µM

CCN(CC)c1ccccc1SC
growth at 30 µM (MCF7 [1]): 97.2%

O=c1[nH]cc(F)c(=O)[nH]1 [FLUOROURACIL]
growth at 30 µM (MCF7 [1]): 28.3%
growth at 30 µM (LNCaP [5]): 58.8%
viability at 48 h, 30 µM [6]: 86.8%
IC50 (MCF7 [7]): 3.18 µM
Activity (MCF7 [8]): Active
IC50 (LNCaP [9]): 5.21 µM
Activity (MCF7 [10]): Active

CCSc1ccccc1N(CC)CC
growth at 30 µM (MCF7 [1]): 99.7%

CCCCCCN(C(C)=O)c1ccccc1OCCC
growth at 30 µM (MCF7 [1]): 51.5%

CCCCCCSc1cc(NC(C)=O)ccc1N(Cc1ccc(C)cc1C)C(C)=O
growth at 30 µM (MCF7 [1]): 6.86%
growth at 30 µM (LNCaP [5]): 19.1%
viability at 48 h, 30 µM [6]: 80.1%
IC50 (MCF7 [7]): 21.6 µM
IC50 (LNCaP [9]): 13.9 µM
Activity (MCF7 [11]): Active
Activity (MCF7 [10]): Active

CCCSc1ccccc1N(CC)C(C)=O
growth at 30 µM (MCF7 [1]): 89.1%

CCOc1ccccc1N(CC)C(C)=O
growth at 30 µM (MCF7 [1]): 93.5%

CC(=O)Nc1ccc(N(Cc2ccc(C)cc2C)C(C)=O)c(SCC2CCCCC2)c1
growth at 30 µM (MCF7 [1]): 13.6%
growth at 30 µM (LNCaP [5]): 40.4%
viability at 48 h, 30 µM [6]: 80.5%
IC50 (MCF7 [7]): 25.2 µM
